Consider one compound from patent US20260034135A1, “USE OF N6-BENZYLAMINOPURINE AS AN APPETITE SUPPRESSANT” (THE GOVERNING COUNCIL OF THE UNIVERSITY OF TORONTO, priority 2022, published 2026).

Assay [1] deals with Npy, Agrp, Pomc. Kind of assay: Hypothalamic feeding neuropeptide expression in mice by qRT-PCR. It counts as in vivo, CD-1 mice. As for the experimental part:
All protocols using mice were approved by the University Animal Care Committee of the University of Toronto and were performed in accordance with the Canadian Council on Animal Care. Animal experiments were performed in three separate animal facilities: Medical Sciences Building (MSB), Centre for Cellular and Biomolecular Research (CCBR) and the Biological Sciences Facility (BSF) due to ongoing construction and housing changes. Facilities and dates are indicated in each experimental cohort. N6-benzylaminopurine (BAP; also called N6-benzyladenine) was obtained from Sigma (B3408, cell culture grade in powder form; CAS number 1214-39-7). Male and female CD-1 mice aged 6-7 weeks were acquired from Charles Rivers and acclimated on a chow diet for one week prior to experimentation. Mice were then weight-matched and placed on either a 60% high fat diet (HFD) or sucrose-matched control diet for 4 weeks (from Research Diets: 60% HFD D12492 and the sucrose-matched control diet […]). After 3 weeks on the diet, mice were acclimated for one week to the drinking apparatus, a 50 mL canonical tube with a drinking tube. After 4 weeks on the diet, the mice were again weight-matched and randomly assigned to either the control or BAP group. […] The average dosages achieved using this method are as follows: male HFD (200 mg/kg/day), male control (157 mg/kg/day), female HFD (189 mg/kg/day), and female control (129.9 mg/kg/day). The mice were exposed continuously to the solutions for a total of 33 days. One week prior to the end of the experiment (day 28), the mice were fasted for 4 hr and underwent intraperitoneal insulin tolerance testing (ITT). After 33 days, the mice were sacrificed, and their tissues were collected. RNA was isolated from the collected hypothalamic and used to quantify gene expression via qRT-PCR. […] All mice were kept on the 60% HFD throughout the exposure period. The male mice were fed their respective emulsion for 11, 14 or 27 days (as indicated), and the female mice were fed for 12 or 36 days (as indicated). On day 12, the one cohort of male mice underwent general anesthetic for the purpose of post-experiment Bruker scanning. The male mice were then fed their assigned emulsion 2 hr prior to sacrificing and tissue collection. […] Hypothalamic collected from the mice were then used to isolate RNA and quantify gene expression using quantitative reverse transcription polymerase chain reaction (qRT-PCR). For cell culture experiments, total RNA was isolated using PureLink RNA isolation kit (Thermofisher Scientific, Burlington, ON, Canada) according to the manufacturer's instruction with on column DNase step (PureLink DNAse kit) or DNase I treatment to remove genomic DNA. For mouse experiments, total RNA was isolated using mirVana PARIS RNA and native protein isolation kit (Thermofisher Scientific). […] Quantitative reverse transcription polymerase chain reaction (RT-qPCR) was performed with 12.5 ng of cDNA amplified with Platinum SYBR green qPCR SuperMix-UDG with ROX on an Applied Biosystems Prism 7900HT or PowerTrack Green Master Mix on an Applied Biosystems QuantStudio 5 and gene specific primers as per manufacturer's instructions (Table 1). Data was analyzed using […] and normalized to reference gene, either 60S ribosomal protein L7 (Rpl7) or Histone 3a (His).

Assay [2] is described as follows: Intraperitoneal insulin tolerance test (ITT). It is filed as in vivo, CD-1 mice. As for the experimental part: All protocols using mice were approved by the University Animal Care Committee of the University of Toronto and were performed in accordance with the Canadian Council on Animal Care. Animal experiments were performed in three separate animal facilities: Medical Sciences Building (MSB), Centre for Cellular and Biomolecular Research (CCBR) and the Biological Sciences Facility (BSF) due to ongoing construction and housing changes. Facilities and dates are indicated in each experimental cohort. N6-benzylaminopurine (BAP; also called N6-benzyladenine) was obtained from Sigma (B3408, cell culture grade in powder form; CAS number 1214-39-7). Male and female CD-1 mice aged 6-7 weeks were acquired from Charles Rivers and acclimated on a chow diet for one week prior to experimentation. Mice were then weight-matched and placed on either a 60% high fat diet (HFD) or sucrose-matched control diet for 4 weeks (from Research Diets: 60% HFD D12492 and the sucrose-matched control diet […]). After 3 weeks on the diet, mice were acclimated for one week to the drinking apparatus, a 50 mL canonical tube with a drinking tube. After 4 weeks on the diet, the mice were again weight-matched and randomly assigned to either the control or BAP group. […] The average dosages achieved using this method are as follows: male HFD (200 mg/kg/day), male control (157 mg/kg/day), female HFD (189 mg/kg/day), and female control (129.9 mg/kg/day). The mice were exposed continuously to the solutions for a total of 33 days. One week prior to the end of the experiment (day 28), the mice were fasted for 4 hr and underwent intraperitoneal insulin tolerance testing (ITT). After 33 days, the mice were sacrificed, and their tissues were collected. RNA was isolated from the collected hypothalamic and used to quantify gene expression via qRT-PCR. Male mice were placed on a 60% HFD for 8 weeks prior to the ITT and GTT analyses. At 4 weeks, treatment with BAP or vehicle was introduced on a daily basis in the honey emulsion as described above. The mice were then briefly fasted to determine the response to insulin or glucose. For the intraperitoneal insulin tolerance test (ITT), mice were transferred to clean cages without food and fasted for 4 hours. The mice were weighed after 3 hours of fasting and these weights were used to determine optimal insulin dosage (1 IU/kg). The appropriate amount of insulin was aliquoted. After 4 hours of fasting, blood glucose was measured via tail vein using a standard glucometer. This value was recorded as the 0-minute timepoint. The mice were intraperitoneal injected with their aliquoted amount of insulin and returned to their cage. Blood glucose was measured via tail vein 15, 30, and 60 minutes after insulin injection. Mice were provided with 20% glucose solution and removed from ITT if hypoglycemia was observed. Upon completion of ITT, mice were returned to cages with food and water and monitored for adverse effects.

Setting [3] is: female CD-1, 60% HFD, BAP in drinking water 33 days.
The mark [4] stands for this setting: male CD-1, HFD, BAP emulsion 11 days, fed 2 hr prior to sacrifice, cohort CCBR.
Where [5] appears, read: male CD-1, HFD, BAP emulsion 14 days, cohort BSF.
Where [6] appears, read: male CD-1, HFD, BAP emulsion, 28 days cohort BSF (27 days per FIG. 22).
Where [7] appears, read: male CD-1, sucrose-matched control diet, BAP in drinking water 33 days.

Regarding `c1ccc(CNc2ncnc3nc[nH]c23)cc1` [BAP, N6-benzylaminopurine], the “hypothalamic Npy, Agrp, and Pomc expression” value in assay [1] (female CD-1, 60% HFD, 300 mg/kg BAP emulsion 36 days, cohort BSF) is listed as “no changes”. Besides, the “hypothalamic expression of feeding neuropeptides” value in assay [1] (female CD-1, 60% HFD, BAP emulsion 12 days, fed 16 hr prior to sacrifice, cohort CCBR (data not shown)) was “no significant changes”. In assay [1] (setting [3]), the “hypothalamic Agrp mRNA expression” value is recorded as “no significant changes”, the “hypothalamic Npy mRNA expression” value is “no significant changes” and the “hypothalamic Pomc mRNA expression” value is recorded as “decreased”. For the same compound, the “hypothalamic feeding neuropeptide expression (Npy, Agrp, Pomc)” value in assay [1] (female CD-1, sucrose-matched control diet, BAP in drinking water 33 days, trend to increased Npy and AgRP) is given as “do not have significant changes”. The “hypothalamic feeding-related neuropeptide expression (Npy, Agrp, Pomc) vs control” value in assay [1] (male CD-1, 60% HFD, BAP in drinking water 33 days) is “did not have any significant changes”. Moreover, in assay [1] (setting [4]), the “hypothalamic Agrp mRNA expression” value is reported as “significantly increased”, the “hypothalamic Npy mRNA expression” value was “significantly increased” and the “hypothalamic Pomc mRNA expression” value was “no significant changes”. Also, in assay [1] (setting [5]), the “hypothalamic Agrp expression” value is given as “modest increase”, the “hypothalamic Npy expression” value was “modest increase” and the “hypothalamic Pomc expression” value is given as “no change”. For the same compound, in assay [1] (setting [6]), the “hypothalamic Agrp expression” value is reported as “modest increase”, the “hypothalamic Npy expression” value is reported as “modest increase” and the “hypothalamic Pomc expression” value was “no change”. Further, in assay [1] (setting [7]), the “hypothalamic AgRP expression vs control” value was “significantly higher”, the “hypothalamic Npy expression vs control” value is given as “significantly higher” and the “hypothalamic Pomc mRNA expression vs control” value is “no change”. In addition, the “fasting blood glucose with BAP (ITT)” value in assay [2] (female CD-1, 60% HFD, BAP emulsion, one week prior to sacrifice, 4 hr fast (data not shown)) is on record as “no significant differences”. Also, in assay [2] (female CD-1, BAP in drinking water, ITT one week prior to sacrifice, 4 hr fast), the “fasting blood glucose with BAP” value is “no significant differences”. In addition, the “insulin sensitivity (ip insulin tolerance test)” value in assay [2] (female CD-1, HFD, BAP in drinking water, after 28 days of exposure) is reported as “do not exhibit enhanced insulin sensitivity”. In addition, the “fasting blood glucose vs HFD without BAP” value in assay [2] (male CD-1, 60% HFD, BAP in drinking water, ITT at day 28, 4 hr fast) was “significantly lower fasting blood glucose levels”. Further, the “insulin sensitivity (blood glucose after ip insulin tolerance test)” value in assay [2] (male CD-1, 60% HFD, after 28 days of daily oral BAP exposure) was “improved glucose tolerance”.
